Measurements reported in US10478437B2, “Combination therapy to enhance the anticancer efficacy of platinum drugs” (University of Pittsburgh-of the Commonwealth System of …, priority 2014, dated 2019).

Test system: cisplatin-resistant ovarian cancer cell line A2780cis
Experiment: Caspase-3/7 activity assay (apoptotic cell death), compound alone or with cisplatin
Assay type: cell-based, human
Conditions: for caspase-3/7 activity (Lum), compound with cisplatin / caspase-3/7 activity (Lum), compound alone: 20 h; for caspase-3/7 activity (Lum), compound alone: compound 20 μM; for activity in the screen (Caspase-3/7 activity and microscopic examination), active / inactive: alone or in the presence of cisplatin, in words
Method: Cell proliferation was determined using a CyQUANT Direct Cell Proliferation Assay kit (Invitrogen), the activity of caspase-3/7 was measured using a Caspase-Glo 3/7 Assay Systems (Promega, Madison, Wis.), and the MTS calorimetric survival assay was performed using the CellTiter 96 AQueous One Solution Cell Proliferation Assay kit (Promega, Madison, Wis.), according to the manufacturer's instructions. The survival fractions were calculated after setting untreated control cells at 100%. The data were plotted and curve fitted using GraphPad Prism software. To quantify the number of cells with active caspase-3, cells were fixed with 4% paraformaldehyde (Electron microscopy sciences, Hatfield, Pa.), stained with Alexa Fluor-488 conjugated antibody against cleaved caspase-3 (Asp175) (Cell Signaling Technology, Danvers, Mass.) followed by flow cytometry. An FITC Annexin V Apoptosis Detection Kit (BD PharMingen, San Diego, Calif.) was used to quantify apoptotic cells, according to the manufacturer's instructions.
A Caspase-3/7 assay was performed to evaluate the activity of the 36 compounds of FIG. 1 in vitro in the cisplatin-resistant ovarian cancer cell line, A2780cis, alone or in the presence of cisplatin. A microscopic examination of apoptotic morphologic changes was also carried out right before the measurement of Caspase-3/7 activity, in order to confirm that the data on the activation of the Caspase-3/7 following treatment is consistent with morphological change and reflects cell death.

[1] = Table 1, compound 20 μM with 20 μM cisplatin
[2] = Table 1, mean ± S.D. of triplicates
[3] = Table 3, compound 20 μM with 20 μM of cisplatin

## Cc1ccc(-c2csc3[nH]c(=S)n(-c4ccccc4)c(=O)c23)o1 [Compound 1-1]
[1]
  caspase-3/7 activity (Lum), compound with cisplatin: 28 ± 1 Lum
[2]
  caspase-3/7 activity (Lum), compound alone: 12 ± 1 Lum
  activity in the screen (Caspase-3/7 activity and microscopic examination), active / inactive: inactive

## CC1CCc2c(sc3[nH]c(=S)n(Cc4ccccc4)c(=O)c23)C1 (stereo not shown) [Compound 1-2]
[1]
  caspase-3/7 activity (Lum), compound with cisplatin: 25 ± 3 Lum
[2]
  caspase-3/7 activity (Lum), compound alone: 12 ± 1 Lum
  activity in the screen (Caspase-3/7 activity and microscopic examination), active / inactive: inactive

## C=CCn1c(=S)[nH]c2scc(-c3ccc(C)c(C)c3)c2c1=O [Compound 1-3]
[1]
  caspase-3/7 activity (Lum), compound with cisplatin: 28 ± 2 Lum
[2]
  caspase-3/7 activity (Lum), compound alone: 12 ± 1 Lum
  activity in the screen (Caspase-3/7 activity and microscopic examination), active / inactive: inactive

## CN(C)CCn1c(=S)[nH]c2ccc(Cl)cc2c1=O [Compound 1-5]
[1]
  caspase-3/7 activity (Lum), compound with cisplatin: 32 ± 1 Lum
[2]
  caspase-3/7 activity (Lum), compound alone: 13 ± 1 Lum

## Cc1cccc2c(=O)n(CCN(C)C)c(=S)[nH]c12 [Compound 1-7]
[1]
  caspase-3/7 activity (Lum), compound with cisplatin: 20 ± 3 Lum
[2]
  caspase-3/7 activity (Lum), compound alone: 12 ± 2 Lum

## O=C(CCn1c(=S)[nH]c2ccccc2c1=O)N1CCOCC1 [Compound 1-9]
[1]
  caspase-3/7 activity (Lum), compound with cisplatin: 23 ± 1 Lum
[2]
  caspase-3/7 activity (Lum), compound alone: 13 ± 1 Lum

## Cc1[nH]c(=S)[nH]c(=O)c1CCC(=O)N1CCOCC1 [Compound 1-10]
[1]
  caspase-3/7 activity (Lum), compound with cisplatin: 21 ± 2 Lum
[2]
  caspase-3/7 activity (Lum), compound alone: 14 ± 1 Lum

## Cc1[nH]c(=S)[nH]c(=O)c1CCC(=O)NCCc1c[nH]c2ccccc12 [Compound 1-11]
[1]
  caspase-3/7 activity (Lum), compound with cisplatin: 18 ± 2 Lum
[2]
  caspase-3/7 activity (Lum), compound alone: 12 ± 1 Lum

## CC1CCN(CCCn2c(=S)[nH]c3ccccc3c2=O)CC1 [Compound 1-12]
[1]
  caspase-3/7 activity (Lum), compound with cisplatin: 23 ± 3 Lum
[2]
  caspase-3/7 activity (Lum), compound alone: 10 ± 1 Lum

## O=C(CCn1c(=S)[nH]c2ccccc2c1=O)NCC1(c2ccccc2)CCCC1 [Compound 1-13]
[1]
  caspase-3/7 activity (Lum), compound with cisplatin: 35 ± 3 Lum
[2]
  caspase-3/7 activity (Lum), compound alone: 14 ± 1 Lum

## O=C(CCCCCn1c(=S)[nH]c2ccccc2c1=O)NCc1ccc2c(c1)OCO2 [Compound 1-14]
[1]
  caspase-3/7 activity (Lum), compound with cisplatin: 22 ± 2 Lum
[2]
  caspase-3/7 activity (Lum), compound alone: 11 ± 1 Lum

## C=CCn1c(=S)[nH]c2scc(-c3ccc(Oc4ccccc4)cc3)c2c1=O [Compound 1-15]
[1]
  caspase-3/7 activity (Lum), compound with cisplatin: 28 ± 3 Lum
[2]
  caspase-3/7 activity (Lum), compound alone: 12 ± 2 Lum
  activity in the screen (Caspase-3/7 activity and microscopic examination), active / inactive: inactive

## COCCCn1c(=S)[nH]c2cc(C(=O)Nc3ccc(F)c(F)c3)ccc2c1=O [Compound 1-16]
[1]
  caspase-3/7 activity (Lum), compound with cisplatin: 18 ± 3 Lum
[2]
  caspase-3/7 activity (Lum), compound alone: 10 ± 1 Lum

## O=C(CCn1c(=O)[nH]c2ccccc2c1=O)NCCCOc1ccc(F)cc1 [Compound 1-18]
[1]
  caspase-3/7 activity (Lum), compound with cisplatin: 19 ± 3 Lum
[2]
  caspase-3/7 activity (Lum), compound alone: 12 ± 1 Lum

## COc1ccccc1Cn1c(=S)[nH]c2ccccc2c1=O [Compound 1-20]
[1]
  caspase-3/7 activity (Lum), compound with cisplatin: 39 ± 3 Lum
[2]
  caspase-3/7 activity (Lum), compound alone: 13 ± 1 Lum

## C=CCn1c(=S)[nH]c2cc(C(=O)Nc3cc(OC)c(OC)c(OC)c3)ccc2c1=O [Compound 1-22]
[1]
  caspase-3/7 activity (Lum), compound with cisplatin: 25 ± 2 Lum
[2]
  caspase-3/7 activity (Lum), compound alone: 16 ± 1 Lum

## CN(Cc1ccc(Cl)c(Cl)c1)C(=O)CCn1c(=O)[nH]c(=O)c2ccccc21 [Compound 1-23]
[1]
  caspase-3/7 activity (Lum), compound with cisplatin: 27 ± 1 Lum
[2]
  caspase-3/7 activity (Lum), compound alone: 15 ± 1 Lum

## CC(C)CC(NC(=O)Cn1c(=O)[nH]c(=O)c2ccccc21)c1ccccc1 (stereo not shown) [Compound 1-25]
[1]
  caspase-3/7 activity (Lum), compound with cisplatin: 33 ± 2 Lum
[2]
  caspase-3/7 activity (Lum), compound alone: 15 ± 1 Lum

## N#Cc1c(-c2ccc(Br)cc2)[nH]c(=S)[nH]c1=O [Compound 1-26]
[1]
  caspase-3/7 activity (Lum), compound with cisplatin: 26 ± 1 Lum
[2]
  caspase-3/7 activity (Lum), compound alone: 14 ± 3 Lum

## CC(C)(C)C1CCc2c(sc3[nH]c(=S)n(Cc4ccccc4)c(=O)c23)C1 (stereo not shown) [Compound 1-27]
[1]
  caspase-3/7 activity (Lum), compound with cisplatin: 40 ± 5 Lum
[2]
  caspase-3/7 activity (Lum), compound alone: 23 ± 2 Lum
  activity in the screen (Caspase-3/7 activity and microscopic examination), active / inactive: inactive

## Nn1c(=S)[nH]c2ccccc2c1=O [Compound 1-28]
[1]
  caspase-3/7 activity (Lum), compound with cisplatin: 22 ± 2 Lum
[2]
  caspase-3/7 activity (Lum), compound alone: 15 ± 1 Lum

## CC(=O)Nn1c(=S)[nH]c2ccccc2c1=O [Compound 1-29]
[1]
  caspase-3/7 activity (Lum), compound with cisplatin: 23 ± 1 Lum
[2]
  caspase-3/7 activity (Lum), compound alone: 15 ± 2 Lum

## CCN(CC)CCn1c(=O)[nH]c2ccccc2c1=O [Compound 1-31]
[1]
  caspase-3/7 activity (Lum), compound with cisplatin: 26 ± 4 Lum
[2]
  caspase-3/7 activity (Lum), compound alone: 12 ± 1 Lum

## O=c1[nH]c2ccccc2c(=O)n1CCCN1CCOCC1 [Compound 1-32]
[1]
  caspase-3/7 activity (Lum), compound with cisplatin: 20 ± 1 Lum
[2]
  caspase-3/7 activity (Lum), compound alone: 13 ± 1 Lum

## O=c1[nH]c2ccccc2c(=O)n1CCc1ccccc1 [Compound 1-33]
[1]
  caspase-3/7 activity (Lum), compound with cisplatin: 16 ± 1 Lum
[2]
  caspase-3/7 activity (Lum), compound alone: 10 ± 1 Lum

## CCOC(=O)c1ccccc1NC(=O)c1c(O)[nH]c(=S)[nH]c1=O [Compound 1-34]
[1]
  caspase-3/7 activity (Lum), compound with cisplatin: 22 ± 3 Lum
[2]
  caspase-3/7 activity (Lum), compound alone: 12 ± 1 Lum

## O=C(Nc1ccccc1)c1c(O)[nH]c(=S)[nH]c1=O [Compound 1-35]
[1]
  caspase-3/7 activity (Lum), compound with cisplatin: 5 ± 1 Lum
[2]
  caspase-3/7 activity (Lum), compound alone: 2 ± 1 Lum

## CCCCn1c(=S)[nH]c2cc(C(=O)OC)ccc2c1=O [Compound 1-36]
[1]
  caspase-3/7 activity (Lum), compound with cisplatin: 47 ± 3 Lum
[2]
  caspase-3/7 activity (Lum), compound alone: 16 ± 2 Lum

## Cc1cccnc1NC(=S)NC(=O)c1cccs1 [Compound 2-2]
[3]
  caspase-3/7 activity (Lum), compound with cisplatin: 25 ± 1 Lum
Table 3
  caspase-3/7 activity (Lum), compound alone: 9 ± 1 Lum

## O=C(NC(=S)Nc1ccccc1N1CCOCC1)c1ccco1 [Compound 2-3]
[3]
  caspase-3/7 activity (Lum), compound with cisplatin: 20 ± 1 Lum
Table 3
  caspase-3/7 activity (Lum), compound alone: 8 ± 1 Lum

## O=C(NC(=S)Nc1ccccc1N1CCCC1)c1cccs1 [Compound 2-4]
[3]
  caspase-3/7 activity (Lum), compound with cisplatin: 18 ± 1 Lum
Table 3
  caspase-3/7 activity (Lum), compound alone: 8 ± 1 Lum

## COc1ccc(C=C2C(=O)NC(=S)NC2=O)c(OC)c1 [Compound 2-6]
[3]
  caspase-3/7 activity (Lum), compound with cisplatin: 22 ± 1 Lum
Table 3
  caspase-3/7 activity (Lum), compound alone: 7 ± 1 Lum

## O=C(NC(=S)Nc1ccccc1)c1ccc(Br)o1 [Compound 2-8]
[3]
  caspase-3/7 activity (Lum), compound with cisplatin: 20 ± 2 Lum
Table 3
  caspase-3/7 activity (Lum), compound alone: 7 ± 2 Lum

## O=C(NC(=S)NCC1CCCO1)c1ccccc1 (stereo not shown) [Compound 2-9]
[3]
  caspase-3/7 activity (Lum), compound with cisplatin: 20 ± 2 Lum
Table 3
  caspase-3/7 activity (Lum), compound alone: 8 ± 1 Lum

## Cc1c(NC(=S)NC(=O)C(C)(C)C)c(=O)n(-c2ccccc2)n1C [Compound 2-10]
[3]
  caspase-3/7 activity (Lum), compound with cisplatin: 20 ± 2 Lum
Table 3
  caspase-3/7 activity (Lum), compound alone: 7 ± 2 Lum

## CC(C)C(=O)NC(=S)Nc1ccc(F)c(Cl)c1 [Compound 2-11]
[3]
  caspase-3/7 activity (Lum), compound with cisplatin: 17 ± 2 Lum
Table 3
  caspase-3/7 activity (Lum), compound alone: 9 ± 1 Lum

## O=C(CNC(=S)NC(=O)c1ccco1)c1ccccc1 [Compound 2-12]
[3]
  caspase-3/7 activity (Lum), compound with cisplatin: 18 ± 1 Lum
Table 3
  caspase-3/7 activity (Lum), compound alone: 7 ± 1 Lum

## O=C(NC(=S)NC1CCS(=O)(=O)C1)c1ccc(F)cc1 (stereo not shown) [Compound 2-13]
[3]
  caspase-3/7 activity (Lum), compound with cisplatin: 20 ± 3 Lum
Table 3
  caspase-3/7 activity (Lum), compound alone: 8 ± 1 Lum

## O=C(NC(=S)NC1CCS(=O)(=O)C1)c1ccccc1 (stereo not shown) [Compound 2-14]
[3]
  caspase-3/7 activity (Lum), compound with cisplatin: 21 ± 2 Lum
Table 3
  caspase-3/7 activity (Lum), compound alone: 8 ± 1 Lum

## COCCCNC(=S)NC(=O)c1ccc(F)cc1 [Compound 2-15]
[3]
  caspase-3/7 activity (Lum), compound with cisplatin: 18 ± 3 Lum
Table 3
  caspase-3/7 activity (Lum), compound alone: 8 ± 1 Lum

## O=C(NC(=S)Nc1ccc(F)c(Cl)c1)C1CCCCC1 [Compound 2-16]
[3]
  caspase-3/7 activity (Lum), compound with cisplatin: 17 ± 1 Lum
Table 3
  caspase-3/7 activity (Lum), compound alone: 8 ± 1 Lum

## O=C(NC(=S)NCCN1CCOCC1)c1ccc(F)cc1 [Compound 2-17]
[3]
  caspase-3/7 activity (Lum), compound with cisplatin: 18 ± 1 Lum
Table 3
  caspase-3/7 activity (Lum), compound alone: 7 ± 2 Lum

## O=C(NC(=S)NCCN1CCOCC1)c1ccc(Cl)cc1 [Compound 2-18]
[3]
  caspase-3/7 activity (Lum), compound with cisplatin: 17 ± 1 Lum
Table 3
  caspase-3/7 activity (Lum), compound alone: 9 ± 1 Lum

## CC(C)(C)C(=O)NC(=S)Nc1sc2c(c1C(N)=O)CCCC2 [Compound 2-20]
[3]
  caspase-3/7 activity (Lum), compound with cisplatin: 15 ± 2 Lum
Table 3
  caspase-3/7 activity (Lum), compound alone: 8 ± 1 Lum

## O=C(NC(=S)Nc1ccccc1F)c1ccco1 [Compound 2-21]
[3]
  caspase-3/7 activity (Lum), compound with cisplatin: 25 ± 1 Lum
Table 3
  caspase-3/7 activity (Lum), compound alone: 8 ± 1 Lum

## O=C(CNC(=S)NC(=O)c1ccc(F)cc1)c1ccccc1 [Compound 2-22]
[3]
  caspase-3/7 activity (Lum), compound with cisplatin: 26 ± 2 Lum
Table 3
  caspase-3/7 activity (Lum), compound alone: 9 ± 1 Lum

## Cc1ccc(NC(=S)NC(=O)c2ccc(F)cc2)nc1 [Compound 2-23]
[3]
  caspase-3/7 activity (Lum), compound with cisplatin: 22 ± 2 Lum
Table 3
  caspase-3/7 activity (Lum), compound alone: 7 ± 0 Lum
  activity in the screen (Caspase-3/7 activity and microscopic examination), active / inactive: inactive

## Cc1ccc(C(=O)NC(=S)Nc2ccc(C)cn2)cc1 [Compound 2-24]
[3]
  caspase-3/7 activity (Lum), compound with cisplatin: 19 ± 5 Lum
Table 3
  caspase-3/7 activity (Lum), compound alone: 7 ± 1 Lum
  activity in the screen (Caspase-3/7 activity and microscopic examination), active / inactive: inactive
